Read-outs that look alike come from different tables or passages of the source.
Test system: plasma miRNAs
Details: 8 weeks
Method: To evaluate plasma biomarkers over time, surgically implanted catheters were used for non-invasive bi-weekly blood draws in the Dahl salt-sensitive rat model of congestive heart failure described in Example 1. Changes in plasma miRNA biomarkers with disease progression and therapeutic treatment with an LNA-modified antisense oligonucleotide targeting miR-208a (M−10101; SEQ ID NO: 12) were evaluated. The flowing experimental groups were tested:
The M-10591 oligonucleotide (SEQ ID NO:13) targets miR-67 from C. elegans, which is not expressed in mammalian tissue, and therefore was used as a control. Dahl salt-sensitive rats were implanted with catheters at week zero and baseline blood was taken. Following catheter implant surgery, high-salt diet was initiated. One week following the initiation of the 4.0% NaCl diet, rats were dosed subcutaneously (s.c.) with saline or antimiRs at 25 mg/kg once every 2 weeks. On alternating weeks (non-injection weeks) 1.5 mls of blood was drawn from the catheter for plasma isolation. Animals were sacrificed 8 weeks after the initial injection.
Plasma and tissue molecular endpoints were evaluated using Taqman RT-PCR assays. Specifically, RNA from plasma samples was isolated using Trizol LS (Invitrogen). Synthetic C. elegans miRNA sequences for lin-4 and miR-2 were added at a constant concentration to each sample to monitor purification efficiency and for normalization. Tissue RNA was isolated using standard Trizol RNA isolation. Standard ABI Taqman miRNA assay protocols were used to determine relative miRNA levels.
Changes in plasma miRNA levels between rats suffering from hypertension-induced heart failure (H S/saline group) and rats treated with an antimiR-208a oligonucleotide (HS/M-10101) were assessed at 8 weeks by both miRNA Taqman array card analysis (Tables 2 and 3) and real-time PCR analysis (Table 4).

[1] = Down Regulated, HS-Saline vs. HS-10101, Real Time PCR
[2] = Up-regulated, HS-Saline vs. HS-10101, Real Time PCR
[3] = decreased in response to treatment, HS-saline/HS-10101, array card
[4] = increased in response to treatment, HS-10101/HS-Saline, array card

## M-10101: antimiR targeting bases 2 to 17 of mature miR-208a, LNA and DNA linked by phosphorothioate bonds; 5′-CTTTTTGCTCGTCTTA-3′ (SEQ ID NO: 12) (all phosphorothioate, sugars by position and methylation of C not given here; LNA/DNA mixmer; listed as Homo sapiens)
[1]
  Fold change of plasma hsa-miR-16: 3.45 fold
  Fold change of plasma hsa-miR-20a: 1.92 fold
  Fold change of plasma hsa-miR-20b: 2.10 fold
  Fold change of plasma hsa-miR-21: 1.48 fold
  Fold change of plasma hsa-miR-22: 1.50 fold
  Fold change of plasma hsa-miR-27a: 2.10 fold
  Fold change of plasma hsa-miR-92a: 2.32 fold
  Fold change of plasma hsa-miR-93: 2.87 fold
  Fold change of plasma hsa-miR-106b: 2.57 fold
  Fold change of plasma hsa-miR-122: 1.36 fold
  Fold change of plasma hsa-miR-126: 1.30 fold
  Fold change of plasma hsa-miR-133a: 1.29 fold
  Fold change of plasma hsa-miR-140: 2.13 fold
  Fold change of plasma hsa-miR-150: 2.07 fold
  Fold change of plasma hsa-miR-185: 2.35 fold
  Fold change of plasma hsa-miR-210: 2.31 fold
  Fold change of plasma hsa-miR-223: 3.02 fold
  Fold change of plasma hsa-miR-320: 3.16 fold
  Fold change of plasma hsa-miR-378: 1.74 fold
  Fold change of plasma hsa-miR-378*: 1.38 fold
  Fold change of plasma hsa-miR-423-5p: 2.52 fold
  Fold change of plasma hsa-miR-499: 1.26 fold
[2]
  Fold change of plasma hsa-miR-19b: 2.68 fold
  Fold change of plasma hsa-miR-125a-5p: 2.05 fold
  Fold change of plasma hsa-miR-143: 1.53 fold
  Fold change of plasma hsa-miR-145: 2.17 fold
  Fold change of plasma hsa-miR-195: 2.10 fold
  Fold change of plasma hsa-miR-199b-5p: 2.39 fold
  Fold change of plasma hsa-miR-204: 2.18 fold
  Fold change of plasma hsa-miR-214: 1.49 fold
[3]
  Fold change of plasma hsa-let-7b: 1.09 fold
  Fold change of plasma hsa-miR-16: 2.04 fold
  Fold change of plasma hsa-miR-17: 1.41 fold
  Fold change of plasma hsa-miR-18a: 2.01 fold
  Fold change of plasma hsa-miR-20a: 2.43 fold
  Fold change of plasma hsa-miR-20b: 4.87 fold
  Fold change of plasma hsa-miR-24: 1.17 fold
  Fold change of plasma hsa-miR-25: 1.33 fold
  Fold change of plasma hsa-miR-26b: 1.98 fold
  Fold change of plasma hsa-miR-27a: 2.74 fold
  Fold change of plasma hsa-miR-27b: 1.18 fold
  Fold change of plasma hsa-miR-29c: 1.34 fold
  Fold change of plasma hsa-miR-30a: 1.28 fold
  Fold change of plasma hsa-miR-30b: 1.21 fold
  Fold change of plasma hsa-miR-92a: 1.20 fold
  Fold change of plasma hsa-miR-93: 2.93 fold
  Fold change of plasma hsa-miR-101a: 1.11 fold
  Fold change of plasma hsa-miR-103a: 1.16 fold
  Fold change of plasma hsa-miR-106b: 2.15 fold
  Fold change of plasma hsa-miR-122: 1.59 fold
  Fold change of plasma hsa-miR-125b-5p: 1.51 fold
  Fold change of plasma hsa-miR-133a: 2.21 fold
  Fold change of plasma hsa-miR-140-5p: 3.23 fold
  Fold change of plasma hsa-miR-148a: 2.49 fold
  Fold change of plasma hsa-miR-181c: 1.37 fold
  Fold change of plasma hsa-miR-182: 1.39 fold
  Fold change of plasma hsa-miR-184: 1.42 fold
  Fold change of plasma hsa-miR-185: 7.02 fold
  Fold change of plasma hsa-miR-188-5p: 1.76 fold
  Fold change of plasma hsa-miR-192: 1.92 fold
  Fold change of plasma hsa-miR-195: 1.73 fold
  Fold change of plasma hsa-miR-197: 1.52 fold
  Fold change of plasma hsa-miR-199a-5p: 4.95 fold
  Fold change of plasma hsa-miR-203: 1.13 fold
  Fold change of plasma hsa-miR-218: 1.32 fold
  Fold change of plasma hsa-miR-222: 1.11 fold
  Fold change of plasma hsa-miR-223: 1.88 fold
  Fold change of plasma hsa-miR-301a: 1.79 fold
  Fold change of plasma hsa-miR-320a: 1.89 fold
  Fold change of plasma hsa-miR-324-5p: 1.39 fold
  Fold change of plasma hsa-miR-335-5p: 1.07 fold
  Fold change of plasma hsa-miR-340-5p: 1.19 fold
  Fold change of plasma hsa-miR-365: 2.61 fold
  Fold change of plasma hsa-miR-423-5p: 4.18 fold
  Fold change of plasma hsa-miR-451: 3.28 fold
  Fold change of plasma hsa-miR-484: 1.46 fold
  Fold change of plasma hsa-miR-486-5p: 1.49 fold
  Fold change of plasma hsa-miR-542-3p: 11.10 fold
  Fold change of plasma hsa-miR-744: 1.83 fold
[4]
  Fold change of plasma hsa-let-7c: 1.54 fold
  Fold change of plasma hsa-let-7e: 1.66 fold
  Fold change of plasma hsa-let-7g: 3.02 fold
  Fold change of plasma hsa-let-7d: 1.98 fold
  Fold change of plasma hsa-miR-19a: 1.90 fold
  Fold change of plasma hsa-miR-19b: 3.27 fold
  Fold change of plasma hsa-miR-26a: 1.39 fold
  Fold change of plasma hsa-miR-28: 6.61 fold
  Fold change of plasma hsa-miR-29a: 1.31 fold
  Fold change of plasma hsa-miR-29b: 2.67 fold
  Fold change of plasma hsa-miR-30c: 1.37 fold
  Fold change of plasma hsa-miR-30e: 1.06 fold
  Fold change of plasma hsa-miR-31: 1.45 fold
  Fold change of plasma hsa-miR-99b: 2.63 fold
  Fold change of plasma hsa-miR-107: 5.54 fold
  Fold change of plasma hsa-miR-125a-3p: 12.16 fold
  Fold change of plasma hsa-miR-125a-5p: 5.34 fold
  Fold change of plasma hsa-miR-126: 1.27 fold
  Fold change of plasma hsa-miR-126-5p (miR-126*): 2.01 fold
  Fold change of plasma hsa-miR-128a: 1.75 fold
  Fold change of plasma hsa-miR-130a: 2.30 fold
  Fold change of plasma hsa-miR-130b: 1.26 fold
  Fold change of plasma hsa-miR-138: 1.08 fold
  Fold change of plasma hsa-miR-139-5p: 1.14 fold
  Fold change of plasma hsa-miR-142-3p: 25.04 fold
  Fold change of plasma hsa-miR-142-5p: 1.98 fold
  Fold change of plasma hsa-miR-143: 8.47 fold
  Fold change of plasma hsa-miR-145: 2.07 fold
  Fold change of plasma hsa-miR-146a: 1.17 fold
  Fold change of plasma hsa-miR-152: 2.05 fold
  Fold change of plasma hsa-miR-155: 1.73 fold
  Fold change of plasma hsa-miR-181a: 3.00 fold
  Fold change of plasma hsa-miR-186: 1.83 fold
  Fold change of plasma hsa-miR-187: 1.60 fold
  Fold change of plasma hsa-miR-191: 1.23 fold
  Fold change of plasma hsa-miR-196b: 11.73 fold
  Fold change of plasma hsa-miR-199a-3p: 3.14 fold
  Fold change of plasma hsa-miR-204: 4.61 fold
  Fold change of plasma hsa-miR-214: 1.57 fold
  Fold change of plasma hsa-miR-296-5p: 18.29 fold
  Fold change of plasma hsa-miR-302a: 2.10 fold
  Fold change of plasma hsa-miR-324-3p: 1.07 fold
  Fold change of plasma hsa-miR-331-3p: 1.53 fold
  Fold change of plasma hsa-miR-339-5p: 2.18 fold
  Fold change of plasma hsa-miR-340-3p: 1.86 fold
  Fold change of plasma hsa-miR-342-3p: 1.15 fold
  Fold change of plasma hsa-miR-375: 1.32 fold
  Fold change of plasma hsa-miR-449a: 2.99 fold
  Fold change of plasma hsa-miR-487b: 2.67 fold
  Fold change of plasma hsa-miR-532-3p: 1.72 fold
  Fold change of plasma hsa-miR-574-3p: 2.20 fold
  Fold change of plasma hsa-miR-30d: 1.29 fold
